Assay results from patent US20100189701A1, “METHODS AND COMPOSITIONS TO TREAT ARRHYTHMIAS” (priority 2007, published 2010).

What was measured:
MMP-7 = conditions: clinically relevant dosages; cited from earlier work
[1] = system: neonatal rat ventricular myocyte cultures; assay: Conduction velocity in neonatal rat ventricular myocyte cultures on multi-electrode array; type: cell-based
epicardial border zone = assay: Canine infarct epicardial border zone, electrograms and microelectrode study; type: in vivo, dog; conditions: dog, in vivo
HCN2 induced current = assay: Autonomic agonists on HCN2 induced current in hMSCs; type: cell-based
[2] = system: monomorphic ventricular tachycardia; conditions: one week after gene transfer; cited from earlier work
[3] = Sodium channel steady state inactivation (literature values); conditions: depolarization to −65 mV
Text: Since slow conduction is an essential feature of reentrant cardiac arrhythmias, it seems worth considering other mammalian sodium channels that might have more favorable properties than the cardiac Na channel in circumstances that favor slow conduction. One such circumstance is membrane depolarization and so the voltage dependence of steady state inactivation is of interest. Cohen Table I provides a comparison of the midpoints for steady state inactivation and slope factor for the cardiac and skeletal muscle sodium channels and a specific mutant of the skeletal muscle channel (G1306E). […] Thus, if cardiac muscle is depolarized to −65 mV, virtually all cardiac sodium channels would be inactivated, while a similar depolarization would leave almost half of normal skeletal muscle sodium channels available. This observation thus relates to a method of the present invention that the use of alternative sodium channels with more favorable biophysical properties serve as a useful antiarrhythmic therapy.
Besides existing sodium channels, much has been learned from structure-function studies in which specific amino acids have been mutated. An extensive study of the S4 domain of the skeletal muscle sodium channel was conducted by Haywood et al. (1996), J. Gen. Physiol. 107, 559-576 in an attempt to understand the origins of enhanced excitability in inherited human myotonia. […]

[4] = cited from earlier work

COc1cc2ncnc(Nc3ccc(F)c(Cl)c3)c2cc1OCCCN1CCOCC1 [Gefitinib]
MMP-7 activity (MMP-7): inhibits MMP-7 activity

NC1=N[C@H](O)[C@H]2[C@H]3O[C@]4(O)O[C@@H]([C@@H](O)[C@@]2(N1)[C@@H]4O)[C@]3(O)CO [TTX, tetrodotoxin]
conduction velocity decrease [1]: 20% | Vmax and membrane responsiveness response (epicardial border zone): significant response to TTX

CC(C)NCC(O)c1ccc(O)c(O)c1 (stereo not shown) [isoproterenol]
effect on expressed HCN2 current (HCN2 induced current): has a direct effect on the expressed current

Cx43: connexin
animals showing no inducible monomorphic VT [2]: 4 of 5

p-conotoxin GIIIA [μ-CTX GIIIA]
effect on CV [1]: CV is reduced in SkM1 cultures to the level recorded in GFP cultures

skM1(G1306E): specific mutant of the skeletal muscle sodium channel
sodium channels available [3]: more than 70% | inactivation midpoint ([4]; as stated in Example 16 group description): −55 mV | activation midpoint ([4]; as worded): −57 mV | Slope factor ([4]; steady state inactivation): −5.2 mV

B1: ERG3: delayed rectifier with steady state window current (protein, UniProt Q9NS40 1-1196, looked up)
Voltage-gated inwardly …: MPVRRGHVAPQNTFLGTIIRKFEGQNKKFIIANARVQNCAIIYCNDGFCEMTGFSRPDVMQKPCTCDFLHGPETKRHDIAQIAQALLGSEERKVEVTYYHKNGSTFICNTHIIPVKNQEGVAMMFIINFEYVTDNENAATPERVNPILPIKTVNRKFFGFKFPGLRVLTYRKQSLPQEDPDVVVIDSSKHSDDSVAMKHFKSPTKESCSPSEADDTKALIQPSKCSPLVNISGPLDHSSPKRQWDRLYPDMLQSSSQLSHSRSRESLCSIRRASSVHDIEGFGVHPKNIFRDRHASEDNGRNVKGPFNHIKSSLLGSTSDSNLNKYSTINKIPQLTLNFSEVKTEKKNSSPPSSDKTIIAPKVKDRTHNVTEKVTQVLSLGADVLPEYKLQTPRINKFTILHYSPFKAVWDWLILLLVIYTAIFTPYSAAFLLNDREEQKRRECGYSCSPLNVVDLIVDIMFIIDILINFRTTYVNQNEEVVSDPAKIAIHYFKGWFLIDMVAAIPFDLLIFGSGSDETTTLIGLLKTARLLRLVRVARKLDRYSEYGAAVLMLLMCIFALIAHWLACIWYAIGNVERPYLTDKIGWLDSLGQQIGKRYNDSDSSSGPSIKDKYVTALYFTFSSLTSVGFGNVSPNTNSEKIFSICVMLIGSLMYASIFGNVSAIIQRLYSGTARYHMQMLRVKEFIRFHQIPNPLRQRLEEYFQHAWTYTNGIDMNMVLKGFPECLQADICLHLNQTLLQNCKAFRGASKGCLRALAMKFKTTHAPPGDTLVHCGDVLTALYFLSRGSIEILKDDIVVAILGKNDIFGEMVHLYAKPGKSNADVRALTYCDLHKIQREDLLEVLDMYPEFSDHFLTNLELTFNLRHESAKADLLRSQSMNDSEGDNCKLRRRKLSFESEGEKENSTNDPEDSADTIRHYQSSKRHFEEKKSRSSSFISSIDDEQKPLFSGIVDSSPGIGKASGLDFEETVPTSGRMHIDKRSHSCKDITDMRSWERENAHPQPEDSSPSALQRAAWGISETESDLTYGEVEQRLDLLQEQLNRLESQMTTDIQTILQLLQKQTTVVPPAYSMVTAGSEYQRPIIQLMRTSQPEASIKTDRSFSPSSQCPEFLDLEKSKLKSKESLSSGVHLNTASEDNLTSLLKQDSDLSLELHLRQRKTYVHPIRHPSLPDSSLSTVGIVGLHRHVSDPGLPGK
potential of maximal steady state conductance (Xenopus oocytes): −50 mV | steady state window conductance vs other ERG family members (Xenopus oocytes): largest steady state conductance

B2: HERG-G628S: dominant negative HERG mutant (protein, UniProt Q12809 1-1159, looked up, variant G628S)
Voltage-gated inwardly …: MPVRRGHVAPQNTFLDTIIRKFEGQSRKFIIANARVENCAVIYCNDGFCELCGYSRAEVMQRPCTCDFLHGPRTQRRAAAQIAQALLGAEERKVEIAFYRKDGSCFLCLVDVVPVKNEDGAVIMFILNFEVVMEKDMVGSPAHDTNHRGPPTSWLAPGRAKTFRLKLPALLALTARESSVRSGGAGGAGAPGAVVVDVDLTPAAPSSESLALDEVTAMDNHVAGLGPAEERRALVGPGSPPRSAPGQLPSPRAHSLNPDASGSSCSLARTRSRESCASVRRASSADDIEAMRAGVLPPPPRHASTGAMHPLRSGLLNSTSDSDLVRYRTISKIPQITLNFVDLKGDPFLASPTSDREIIAPKIKERTHNVTEKVTQVLSLGADVLPEYKLQAPRIHRWTILHYSPFKAVWDWLILLLVIYTAVFTPYSAAFLLKETEEGPPATECGYACQPLAVVDLIVDIMFIVDILINFRTTYVNANEEVVSHPGRIAVHYFKGWFLIDMVAAIPFDLLIFGSGSEELIGLLKTARLLRLVRVARKLDRYSEYGAAVLFLLMCTFALIAHWLACIWYAIGNMEQPHMDSRIGWLHNLGDQIGKPYNSSGLGGPSIKDKYVTALYFTFSSLTSVGFSNVSPNTNSEKIFSICVMLIGSLMYASIFGNVSAIIQRLYSGTARYHTQMLRVREFIRFHQIPNPLRQRLEEYFQHAWSYTNGIDMNAVLKGFPECLQADICLHLNRSLLQHCKPFRGATKGCLRALAMKFKTTHAPPGDTLVHAGDLLTALYFISRGSIEILRGDVVVAILGKNDIFGEPLNLYARPGKSNGDVRALTYCDLHKIHRDDLLEVLDMYPEFSDHFWSSLEITFNLRDTNMIPGSPGSTELEGGFSRQRKRKLSFRRRTDKDTEQPGEVSALGPGRAGAGPSSRGRPGGPWGESPSSGPSSPESSEDEGPGRSSSPLRLVPFSSPRPPGEPPGGEPLMEDCEKSSDTCNPLSGAFSGVSNIFSFWGDSRGRQYQELPRCPAPTPSLLNIPLSSPGRRPRGDVESRLDALQRQLNRLETRLSADMATVLQLLQRQMTLVPPAYSAVTTPGPGPTSTSPLLPVSPLPTLTLDSLSQVSQFMACEELPPGAPELPQEGPTRRLSLPGQLGALTSQPLHRHGSDPGS
animals showing no inducible monomorphic VT [2]: 5 of 5
